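Grown in 96-well plates, cells were treated for 48 hours with each compound at five concentrations. Insufficient inhibition: endpoint recorded as highest concentration tested. Abbreviation: GI50, concentration required for 50% inhibition of growth. At the TGI there is no net growth.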
Legend:
Assay in all cases: NCI-60 cell line screen, 48 h
[1] = system: MDA-MB-231 breast
[2] = system: SF-268 CNS
[3] = system: SK-MEL-2 melanoma
[4] = system: M14 melanoma
[5] = system: HOP-92 NSCLC
[6] = system: HCT-116 colon
[7] = system: CAKI-1 renal
[8] = system: HT29 colon
[9] = system: SF-295 CNS
[10] = system: HCT-15 colon
[11] = system: A498 renal
[12] = system: SK-MEL-5 melanoma
[13] = system: SN12C renal
[14] = system: LOX IMVI melanoma
[15] = system: SR leukemia
[16] = system: NCI-H460 lung
[17] = system: NCI-H23 lung
[18] = system: BT-549 breast
[19] = system: NCI/ADR-RES ovarian
[20] = system: 786-0 renal
[21] = system: K-562 leukemia
[22] = system: OVCAR-3 ovarian
[23] = system: UACC-62 melanoma
[24] = system: HS 578T breast
[25] = system: MCF7 breast
[26] = system: U251 CNS
[27] = system: HCC-2998 colon
[28] = system: T-47D breast
[29] = system: NCI-H522 lung
[30] = system: HL-60(TB) leukemia
[31] = system: SNB-19 CNS
[32] = system: MALME-3M melanoma
[33] = system: DU-145 prostate
[34] = system: RPMI-8226 leukemia
[35] = system: SF-539 CNS
[36] = system: NCI-H226 lung
[37] = system: OVCAR-5 ovarian
[38] = system: KM12 colon
[39] = system: RXF 393 renal
[40] = system: MDA-MB-435
[41] = system: SK-MEL-28 melanoma
[42] = system: A549 NSCLC
[43] = system: OVCAR-8 ovarian
[44] = system: TK-10 renal
[45] = system: UO-31 renal
[46] = system: SW-620 colon
[47] = system: ACHN renal
[48] = system: UACC-257 melanoma
[49] = system: PC-3 prostate
[50] = system: SNB-75 CNS
[51] = system: OVCAR-4 ovarian
[52] = system: SK-OV-3 ovarian
[53] = system: COLO 205 colon

## Nc1c(C(=O)Nc2ccccc2Cl)sc2nc3c(cc12)CCCCCC3
[1]
  GI50: 2.24 µM
  TGI: 14.1 µM
[2]
  GI50: 3.44 µM
  TGI: 16.7 µM
[3]
  GI50: 2.77 µM
  TGI: 23.1 µM
[4]
  GI50: 2.25 µM
  TGI: 95.1 µM
[5]
  GI50: 1.77 µM
  TGI: 6.54 µM
[6]
  GI50: 1.95 µM
  TGI: 6.6 µM
[7]
  GI50: 3.74 µM
  TGI: > 100 µM
[8]
  GI50: 2.39 µM
  TGI: 13.4 µM
[9]
  GI50: 2.47 µM
  TGI: 13.6 µM
[10]
  GI50: 1.59 µM
  TGI: > 100 µM
[11]
  GI50: 7.73 µM
  TGI: > 100 µM
[12]
  GI50: 3.91 µM
  TGI: > 100 µM
[13]
  GI50: 9.11 µM
  TGI: > 100 µM
[14]
  GI50: 5.7 µM
  TGI: > 100 µM
[15]
  GI50: 2.18 µM
  TGI: > 100 µM
[16]
  GI50: 3.32 µM
  TGI: 13.9 µM
[17]
  GI50: 8.83 µM
  TGI: > 100 µM
[18]
  GI50: 3.64 µM
  TGI: 29.1 µM
[19]
  GI50: 2.82 µM
  TGI: 25.4 µM
[20]
  GI50: 1.75 µM
  TGI: 3.27 µM
[21]
  GI50: 0.541 µM
  TGI: > 100 µM
[22]
  GI50: 3.23 µM
  TGI: 12.7 µM
[23]
  GI50: 3.32 µM
  TGI: > 100 µM
[24]
  GI50: 2.9 µM
  TGI: 14.6 µM
[25]
  GI50: 0.896 µM
  TGI: 16.7 µM
[26]
  GI50: 2.99 µM
  TGI: 21.3 µM
[27]
  GI50: 7.06 µM
  TGI: > 100 µM
[28]
  GI50: 3.88 µM
  TGI: 17.2 µM
[29]
  GI50: 13.6 µM
  TGI: 91.1 µM
[30]
  GI50: 2.73 µM
  TGI: > 100 µM
[31]
  GI50: 2.93 µM
  TGI: 20.5 µM
[32]
  GI50: 2.62 µM
  TGI: 9.33 µM
[33]
  GI50: 7.84 µM
  TGI: > 100 µM
[34]
  GI50: > 100 µM
  TGI: > 100 µM
[35]
  GI50: 2.65 µM
  TGI: 8.12 µM
[36]
  GI50: 3.76 µM
  TGI: 24.5 µM
[37]
  GI50: 6.88 µM
  TGI: > 100 µM
[38]
  GI50: 3.67 µM
  TGI: > 100 µM
[39]
  GI50: 1.85 µM
  TGI: 3.98 µM
[40]
  GI50: 0.275 µM
  TGI: 1.1 µM
[41]
  GI50: 10.2 µM
  TGI: > 100 µM
[42]
  GI50: 4.54 µM
  TGI: 73.2 µM
[43]
  GI50: 4.11 µM
  TGI: 30.5 µM
[44]
  GI50: 2.4 µM
  TGI: 6.22 µM
[45]
  GI50: 2.19 µM
  TGI: 5.01 µM
[46]
  GI50: 3.14 µM
  TGI: > 100 µM
[47]
  GI50: 2.17 µM
  TGI: 4.86 µM
[48]
  GI50: 11.1 µM
  TGI: > 100 µM
[49]
  GI50: 15.4 µM
  TGI: > 100 µM
[50]
  GI50: 1.57 µM
  TGI: 3.35 µM
[51]
  GI50: 2.11 µM
  TGI: 5.1 µM
[52]
  GI50: 2.65 µM
  TGI: 7.88 µM
[53]
  GI50: 8.52 µM
  TGI: > 100 µM
